This is an account of results in US9179678B2, “Substituted [1,2,4]triazoles and substituted tetrazoles as herbicides” (SYNGENTA LIMITED, priority 2012, dated 2015).

What all share (type): in vivo
Assay [1] has as its system Solanum nigrum (SOLNI). The assay is described as follows: Pre-emergence glasshouse herbicide test. Particulars: PRE Application, 1000 g/h, after 13 days.
The test system of assay [2] is Alopecurus myosuroides (ALOMY). Put plainly: Pre-emergence glasshouse herbicide test. As to conditions: PRE Application, 1000 g/h, after 13 days. The gist of the method: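 This pre-emergence glasshouse test used pots of standard soil sown with ALOMY seed and cultivated for one day under controlled conditions of 24/16° C., 14 hours light and 65% humidity. An aqueous spray from an acetone/water (50:50) formulation with 0.5% Tween 20 was applied. After 13 days of further growth with twice-daily watering, plant damage was rated as a percentage.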

The subject of assay [3] is Amaranthus retoflexus (AMARE). Put plainly: Pre-emergence glasshouse herbicide test. As to conditions: PRE Application, 1000 g/h, after 13 days.
Assay [4] deals with Ipomoea hederacea (IPOHE). Put plainly: Pre-emergence glasshouse herbicide test. Particulars: PRE Application, 1000 g/h, after 13 days.
Assay [5] deals with Setaria faberi (SETFA). The assay is described as follows: Pre-emergence glasshouse herbicide test. Particulars: PRE Application, 1000 g/h, after 13 days.
The test system of assay [6] is Echinochloa crus-galli (ECHCG). Put plainly: Pre-emergence glasshouse herbicide test. As to conditions: PRE Application, 1000 g/h, after 13 days.
Assay [7] deals with Solanum nigrum (SOLNI). Put plainly: Post-emergence glasshouse herbicide test. As to conditions: POST Application, 1000 g/h, after 13 days. An outline of the steps: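 This glasshouse post-emergence herbicide test used Solanum nigrum plants sown in standard soil and cultivated for 8 days under controlled conditions (24/16° C. day/night, 14 hours light, 65% humidity). An aqueous spray from an acetone/water (50:50) solution with 0.5% Tween 20 was applied. Plants were watered twice daily, and damage to each plant was assessed as a percentage 13 days later.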

Assay [8] has as its system Alopecurus myosuroides (ALOMY). Put plainly: Post-emergence glasshouse herbicide test. Particulars: POST Application, 1000 g/h, after 13 days. An outline of the steps:
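In this glasshouse post-emergence test, ALOMY plants were cultivated in standard soil for 8 days under controlled conditions (24/16° C. day/night, 14 hours light, 65% humidity). They were then treated with a spray derived from an acetone/water (50:50) formulation with 0.5% Tween 20, grown on with watering twice daily, and rated for percentage damage after 13 days.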

Assay [9] relates to Amaranthus retoflexus (AMARE). The assay is described as follows: Post-emergence glasshouse herbicide test. Particulars: POST Application, 1000 g/h, after 13 days.
Assay [10] concerns Ipomoea hederacea (IPOHE). Put plainly: Post-emergence glasshouse herbicide test. Particulars: POST Application, 1000 g/h, after 13 days.
For assay [11], the system named is Echinochloa crus-galli (ECHCG). The assay is described as follows: Post-emergence glasshouse herbicide test. As to conditions: POST Application, 1000 g/h, after 13 days.
For assay [12], the system named is Setaria faberi (SETFA). Put plainly: Post-emergence glasshouse herbicide test. Particulars: POST Application, 1000 g/h, after 13 days. The gist of the method:
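This post-emergence glasshouse herbicide test used SETFA plants raised in pots of standard soil for 8 days under controlled conditions (24/16° C., 14 hours light, 65% humidity). An aqueous spray made from acetone/water (50:50) with 0.5% Tween 20 was applied. Plants were watered twice daily, and percentage plant damage was assessed 13 days later.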

Structures are written as SMILES.

With `Cn1nnnc1NC(=O)c1nc2ccccc2n(-c2ccc(C(F)(F)F)cc2)c1=O` [Compound 5.019], the “percentage damage caused to the plant, SOLNI” value in the assay on Solanum nigrum (SOLNI) [1] and with Solanum nigrum (SOLNI) [7] was 5 (5=80-100%) each time. For the same compound, the figures for the “percentage damage caused to the plant, ALOMY” value in [2] and in [8] were 4 (4=60-79%) and 3 (3=40-59%), respectively. Also, the “percentage damage caused to the plant, AMARE” value in assay [3] and in [9] was 5 (5=80-100%) throughout. In addition, the “percentage damage caused to the plant, IPOHE” value in assay [4] and in [10] was 5 (5=80-100%) throughout. The “percentage damage caused to the plant, SETFA” value in the assay on Setaria faberi (SETFA) [5] and in the assay with Setaria faberi (SETFA) [12] was 5 (5=80-100%) each time. Besides, the “percentage damage caused to the plant, ECHCG” value in [6] and in assay [11] was 5 (5=80-100%) in each case.

As to `CSc1ccc(-n2c(=O)c(C(=O)Nc3nnnn3C)nc3ccccc32)cc1` [Compound 5.020], the “percentage damage caused to the plant, SOLNI” value with Solanum nigrum (SOLNI) [1] and with Solanum nigrum (SOLNI) [7] was 5 (5=80-100%) throughout. Besides, the “percentage damage caused to the plant, ALOMY” value was 1 (1=0-19%) in assay [2] and 5 (5=80-100%) in [8]. Besides, the “percentage damage caused to the plant, AMARE” value in assay [3] and in assay [9] was 5 (5=80-100%) in each case. For the same compound, the “percentage damage caused to the plant, IPOHE” value was 3 (3=40-59%) in [4] and 5 (5=80-100%) in assay [10]. Moreover, the “percentage damage caused to the plant, SETFA” value is 1 (1=0-19%) in the assay with Setaria faberi (SETFA) [5] and 2 (2=20-39%) in the assay on Setaria faberi (SETFA) [12]. For the same compound, the “percentage damage caused to the plant, ECHCG” value in assay [6] is reported as 3 (3=40-59%); in assay [11], 5 (5=80-100%).

As to `Cn1nnnc1NC(=O)c1nc2ccccc2n(-c2cccc(C#N)c2)c1=O` [Compound 5.021], the “percentage damage caused to the plant, SOLNI” value in the assay on Solanum nigrum (SOLNI) [1] and in the assay on Solanum nigrum (SOLNI) [7] was 5 (5=80-100%) throughout. The “percentage damage caused to the plant, ALOMY” value is given as 5 (5=80-100%) in [2] and 4 (4=60-79%) in assay [8]. In addition, the “percentage damage caused to the plant, AMARE” value in assay [3] and in [9] was 5 (5=80-100%) each time. The “percentage damage caused to the plant, IPOHE” value in assay [4] and in assay [10] was 5 (5=80-100%) each time. Further, the “percentage damage caused to the plant, SETFA” value in the assay with Setaria faberi (SETFA) [5] and in the assay with Setaria faberi (SETFA) [12] was 5 (5=80-100%) in each case. Besides, the “percentage damage caused to the plant, ECHCG” value is listed as 5 (5=80-100%) in assay [6] and 2 (2=20-39%) in assay [11].

In the case of `Cn1nnnc1NC(=O)c1nc2ccccc2n(-c2ccc([N+](=O)[O-])cc2)c1=O` [Compound 5.022], the “percentage damage caused to the plant, SOLNI” value in the assay on Solanum nigrum (SOLNI) [1] and in the assay with Solanum nigrum (SOLNI) [7] was 5 (5=80-100%) each time. The “percentage damage caused to the plant, ALOMY” value is 3 (3=40-59%) in [2] and 2 (2=20-39%) in [8]. In addition, the “percentage damage caused to the plant, AMARE” value in [3] and in assay [9] was 5 (5=80-100%) in each case. Also, the “percentage damage caused to the plant, IPOHE” value in assay [4] is 4 (4=60-79%); in assay [10], 5 (5=80-100%). The results for the “percentage damage caused to the plant, SETFA” value in the assay with Setaria faberi (SETFA) [5] and with Setaria faberi (SETFA) [12] were 5 (5=80-100%) and 4 (4=60-79%), respectively. The “percentage damage caused to the plant, ECHCG” value in assay [6] was 5 (5=80-100%); in assay [11], 4 (4=60-79%).
